Results taken from publication PMC5418359, “Topical Ophthalmic Formulation of Trichostatin A and SurR9-C84A for Quick Recovery Post-alkali Burn of Corneal Haze” (Frontiers in Pharmacology, 2017).

Experiments:
cornea = assay: Mean opacity and mean permeability measurements, rat alkali burn model; format: in vivo; conditions: for Mean in vitro score / Mean opacity measurement: 1 M NaOH 1 min, topical treatment 40 min; for Predicted irritation potential: rat, in vivo
Description: The mean in vivo scores was determined using the mean opacity measurements. The rat eyes were excised carefully and carried to the laboratory in HBSS supplemented with penicillin/streptomycin. The measurement of mean opacity was carried out using an opacitometer which measures the transmission of light through the center of each mounted cornea. The mean permeability score was determined by adding a fluorescent (rhodamine solution) on the anterior side of the holder and the corneas were incubated in a horizontal position for 90 min at 32°C. The medium in the posterior chamber was removed and added to 96 well plates and the OD at 490 nm was read. The readings obtained at OD490 were used to determine the permeability of each treatment with respect to the change in the untreated corneas.

[1] = system: conjunctival layer and corneal matrix; assay: H&E histology of corneal segments, rat alkali burn model; format: in vivo; conditions: 1 M NaOH 1 min, topical treatment 40 min
Description: After the completion of the study, all tissues that required to be examined (eyes, brain, kidneys, liver, spleen, heart and lungs) were isolated. The cornea was carefully separated from the eye without damaging it and washed using phosphate buffer saline (PBS). Tissues were fixed using 4% paraformaldehyde (PF) overnight at 4°C and then washed in PBS. The tissue segments were dehydrated in graded ethanol, embedded in paraffin and 5–7 μm thick sections were cut using a microtome. Sections were collected on poly-lysine coated slides using the Leica cryostat and were fixed immediately in ice-cold acetone. All the sections were stained for haematoxylin–eosin (H&E) for critical analysis.

corneal lysate = assay: Multianalyte ELISA of inflammatory cytokines in corneal lysate; format: in vivo, rat
Description: The cytokine profiling was performed using the Rat Inflammatory Cytokines & Chemokines Multi-Analyte ELISArray Kit (QIAGEN, USA). Briefly, serial dilutions of the Antigen Standard and the experimental samples were prepared. 50 μL of Assay Buffer was added to each well of the 8-well ELISA strips. Fifty microliters samples and/or standards were added to the appropriate wells of the ELISA strips and incubated for 2 h at room temperature. The ELISA strips were further washed using 350 μL 1 × Washing Buffer thrice. Hundred microliters of Detection Antibody solution was added to the ELISA strips and incubated for 1 h at room temperature. ELISA wells were washed as mentioned above. Hundred microliters of the Avidin–HRP solution was added to all wells and incubated for 30 min at room temperature. ELISA wells were washed as mentioned above. Hundred microliters of Development Solution was added to each well and incubated for 15 min at room temperature in the dark. Hundred microliters of Stop Solution was added to each well. The color changed from blue to yellow. The absorbance at 450 nm was measured within 30 min of stopping the reaction. The estimation of pg/mL of cytokines was performed using the values obtained from antigen standards and a graph was plotted for the cytokine expression with the effect of treatments.

Blood analysis = format: in vivo; design: HCT / MCH / WBC / RBC / HGB / MCHC: unit not given here; conditions: rat blood; for MCV: in fL (unit assumed)
Description: The analysis of blood samples was performed directly using the ABX Micros ES 60 (Horiba Medicals). The parameters analyzed included the number of red blood cells (RBC’s), white blood cells (WBC’s), platelets and hemoglobin content. Briefly, 20 μL of the blood sample was acquired in the instrument and the readings were recorded.

rat corneal tissues = conditions: for clathrin (conjunctival layer) and claudin (corneal layer) expressions, immunofluorescence: post-NaOH insult
[2] = system: rat eyes post-alkali burn
[3] = system: expression of survivin, TGF-beta-1, alpha-SMA and collagen IV in alkali burnt cornea; assay: Ex vivo RT-PCR dose ranging in alkali burnt rat eyes; conditions: 1 M NaOH 1 min, treatment 40 min
Description: This procedure was carried out using a previously published protocol ([Lin et al., 2016]). Rat eyes were harvested from humanely killed rats and washed with HBSS. Rat eyes were further incubated with 1 M NaOH for 1 min and then treated with TSA ([…]), SurR9-C84A (0.5, 1.2, and 2.5 mg/kg), pSur/As-Sur ([…]) and empty plasmid (200, 400, and 800 μg/kg) for 40 min. Untreated eyes were maintained as controls. After treatment period, eyes were washed with PBS and total RNA was extracted using the TRIzol® reagent (cat# 15596-026, Thermo Fisher Scientific, Waltham, MA, USA), and complementary DNA (cDNA) was synthesized from RNA using the RevertAid H Minus First Strand cDNA Synthesis Kit (cat# K1631, Thermo Fisher Scientific). Expression of survivin, TGF-beta-1, alpha-SMA and collagen IV was determined by polymerase chain reaction (PCR).

Molecule | Mean in vitro score (cornea) | Mean opacity measurement (cornea) | Predicted irritation potential (cornea) | corneal tissue integrity (conjunctival layer, corneal matrix), H&E [1] | IL-1 beta expression, ELISA (corneal lysate) | IL-4 expression, ELISA (corneal lysate) | MCHC (Blood analysis) | RBC (Blood analysis) | WBC (Blood analysis) | MCV (Blood analysis) | alpha-SMA expression, immunofluorescence (rat corneal tissues; confocal microscopy) | survivin expression, immunofluorescence (rat corneal tissues; confocal microscopy) | clathrin (conjunctival layer) and claudin (corneal layer) expressions, immunofluorescence (rat corneal tissues) | Collagen type IV gene expression, qRT-PCR [2] | IL-1 beta gene expression, qRT-PCR [2] | MMP-2 gene expression, qRT-PCR [2] | TGF-beta-1 gene expression, qRT-PCR [2] | other results
[Na+].[OH-] [NaOH] | 10.2 ± 0.5^∗∗∗ | 2.5 ± 0.5^∗∗ | Moderate irritation | damage of the conjunctival layer and the corneal matrix | increase | decrease | 37.51 ± 4.79 | 6.53 ± 2.89 | 3.4 ± 1.19 | 62.5 ± 8.01 | substantially enhanced | slightly increased | substantially lowered | increase | decreased | increase | increase | GMCSF expression, ELISA (corneal lysate): enhanced; IFN-gamma expression, ELISA (corneal lysate): upregulated; IL-6 expression, ELISA (corneal lysate): enhanced; IL-10 expression, ELISA (corneal lysate): significant increase; IL-12 expression, ELISA (corneal lysate): decreased; IL-13 expression, ELISA (corneal lysate): enhanced; Rantes expression, ELISA (corneal lysate): upregulated; TNF-alpha expression, ELISA (corneal lysate): enhanced; collagen type IV expression, immunofluorescence (rat corneal tissues; confocal microscopy): downregulated; increase in alpha-SMA expression, western blot (rat corneal lysates; NaOH insult): 2.7 fold; decrease/downregulation of collagen type IV, western blot (rat corneal lysates; rat, in vivo, iv): 1.1 fold; IL-6 gene expression, qRT-PCR [2]: increased; MMP-9 gene expression, qRT-PCR [2]: lowered; TNF-alpha gene expression, qRT-PCR [2]: increased; alpha-integrin 5 gene expression, qRT-PCR [2]: lowered
SurR9-C84A: dominant negative survivin protein (survivin mutant) | 0.0^∗ | 0.0^∗ | No irritation | recovery of the conjunctival layer | further increase | increase | 36.61 ± 1.57 | 8.35 ± 0.99 | 1.3 ± 3.18 | 55.66 ± 1.86 | substantial decrease | increase | more effective than TSA alone | efficiently downregulated | increase | downregulating | further increase | most effective dosage in inhibiting expression of survivin, alpha-SMA, TGF-beta-1 and collagen IV [3]: 1.2 mg/kg; IL-1 alpha expression, ELISA (corneal lysate): significantly increase; IL-2 expression, ELISA (corneal lysate): significantly increased; HCT (Blood analysis): increased the HCT count to normal range; HGB (Blood analysis): 17.1 ± 1.11; MCH (Blood analysis): reduced to normal range; PLT (Blood analysis): increased; HCT (Blood analysis; listed as NaOH–SurR9-C84A): 46.85 ± 4.14; MCH (Blood analysis; listed as NaOH–SurR9-C84A): 20.36 ± 1.42; PLT (Blood analysis; listed as NaOH–SurR9-C84A): 547.16 ± 130; downregulation of alpha-SMA, western blot (rat corneal lysates; post-NaOH insult): 6.75 fold; enhancement of Fibronectin-1 expression, western blot (rat corneal lysates; post-NaOH insult): 1.97 fold; increase in TGF-beta-1 expression, western blot (rat corneal lysates; post-NaOH insult): 2.4 fold; increase in survivin expression, western blot (rat corneal lysates; post-NaOH insult): 7.7 fold; Fibronectin-1 gene expression, qRT-PCR [2]: significantly enhanced; alpha-SMA gene expression, qRT-PCR [2]: significant decrease; survivin gene expression, qRT-PCR [2]: significantly increased
